We go through two molecules from paper PMC8163982, “Partial agonism improves the anti-hyperglycaemic efficacy of an oxyntomodulin-derived GLP-1R/GCGR co-agonist” (Molecular Metabolism, 2021).

Data set [1] addresses GLP-1R (Homo sapiens, UniProt P43220). The data set is described as follows: NanoBiT mini-Gs recruitment to GLP-1R-SmBiT in HEK293T cells. The note with it: SRB103 pair, mean ± SEM, n = 6. The class given is cell-based. How it is done: The assay was performed as previously described. […] (gifts from Professor Nevin Lambert, Medical College of Georgia) or 0.05 μg of GLP-1R-SmBiT and 0.05 μg of LgBiT-β-arrestin-2 (Promega) plus 0.9 μg of pcDNA3.1 for 24 h. The cells were detached with EDTA, resuspended in HBSS, and furimazine (Promega) was added at a 1:50 dilution from the manufacturer's pre-prepared stock. After dispensing into 96-well white plates, a baseline read of the luminescent signals was serially recorded for 5 min using a FlexStation 3 instrument at 37 °C before the indicated concentration of ligand was added, after which the signals were repeatedly recorded for 30 min. […] Bias was calculated using two approaches. First, the log max/EC50 method was used, with the ratio of Emax to EC50 from 3-parameter fits for each ligand used to quantify agonism. After log10 transformation, responses were expressed relative to the reference agonist on a per assay basis to obtain Δlog(Emax/EC50) for each pathway. Pathway-specific values were then expressed relative to each other to obtain ΔΔlog(Emax/EC50), that is, the log bias factor. Second, a method derived from kinetic curve fitting was used. Here, kinetic responses for a single maximal agonist concentration were normalised at each time point to the vehicle response prior to curve fitting. […]

In data set [2] the target is T1, human GIPR (Homo sapiens, UniProt P48546).
T1 construct: host or cells: PathHunter CHO-K1-βarr2-EA
T1 sequence (P48546 22-466): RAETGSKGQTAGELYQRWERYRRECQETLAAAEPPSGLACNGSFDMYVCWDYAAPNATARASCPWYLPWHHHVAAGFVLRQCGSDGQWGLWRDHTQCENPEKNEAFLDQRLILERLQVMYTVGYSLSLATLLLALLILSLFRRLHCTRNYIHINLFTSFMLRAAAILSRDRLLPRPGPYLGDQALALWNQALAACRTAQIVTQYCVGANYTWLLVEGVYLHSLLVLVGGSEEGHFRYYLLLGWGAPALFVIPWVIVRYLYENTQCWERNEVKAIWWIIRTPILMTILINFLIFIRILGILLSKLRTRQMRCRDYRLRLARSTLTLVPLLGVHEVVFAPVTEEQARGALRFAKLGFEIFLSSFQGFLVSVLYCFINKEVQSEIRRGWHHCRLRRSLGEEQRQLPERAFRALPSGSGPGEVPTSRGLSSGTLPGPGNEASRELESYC
The data set is described as follows: cAMP production (HTRF) in PathHunter CHO-K1 cells expressing GIPR. The format is cell-based. The note with it: 30 min, mean ± SEM, n = 6; for EC50: 37 °C, serum-free medium, no phosphodiesterase inhibitors, read-out: GIPR CAMP (CHO–K1) pEC50 (converted); for Emax: CHO-K1, normalised to globally fitted maximum response. How it is done: HEK293T cells were maintained in DMEM supplemented with 10% FBS and 1% penicillin/streptomycin. PathHunter CHO–K1-βarr2-EA cells stably expressing human GLP-1R, GCGR, or GIPR and PathHunter CHO–K1-βarr1-EA cells stably expressing GCGR were obtained from DiscoverX and maintained in Ham's F12 medium with 10% FBS and 1% penicillin/streptomycin. Stable HEK293-SNAP-GLP-1R cells were maintained in DMEM supplemented with 10% FBS, 1% penicillin/streptomycin, and 1 mg/ml of G418. INS-1 832/3 cells, a gift from Professor Chris Newgard (Duke University), were maintained in RPMI with 11 mM of glucose supplemented with 10% FBS, 10 mM of HEPES, 1 mM of pyruvate, 50 μM of β-mercaptoethanol, and 1% penicillin/streptomycin. Huh7 cells stably expressing human GCGR (Huh7-GCGR) were maintained in DMEM supplemented with 10% FBS, 1 mg/ml of G418, and 1% penicillin/streptomycin.
PathHunter cells were stimulated with the indicated concentration of agonist for 30 min at 37 °C in serum-free medium without phosphodiesterase inhibitors. INS-1 832/3 cells were stimulated with the indicated concentration of agonist for 10 min at 37 °C in serum-free medium with 100 μM of 3-isobutyl-1-methylxanthine (IBMX). Primary dispersed mouse islet cells prepared by triturating intact islets in 0.05% trypsin/EDTA for 3 min at 37 °C were stimulated with the indicated concentration of agonist for 5 min at 37 °C in serum-free medium with 11 mM of glucose and 500 μM of IBMX. Primary mouse hepatocytes were stimulated in serum-free medium with 100 μM of IBMX for 10 min or 16 h in serum-free medium with 100 μM of IBMX added for the final 10 min of incubation. Huh7-GCGR cells were stimulated in serum-free medium without phosphodiesterase inhibitors for 10 min or for 16 h in serum-free medium. Where relevant, forskolin (10 μM) was added as a positive or normalisation control. At the end of each incubation, cAMP was then assayed by HTRF (Cisbio cAMP Dynamic 2) and concentration-response curves were constructed with 3-parameter curve fitting using Prism 8.0.
A general note: Cyclic AMP is a second messenger, typically raised through Gs and lowered through Gi signalling.

A short description of data set [3]: Pharmacokinetic study in mice (plasma radioimmunoassay). The note with it: 0.5 mg/kg IP. The format is in vivo, mouse. How it is done:
The mice were administered 0.5 mg/kg of peptide via IP injection. Four h after injection, blood was acquired by venesection into lithium heparin-coated microvette tubes (Sarstedt, Germany). In a separate study, male Sprague Dawley rats (average weight 250 g, obtained from Charles River) were administered 4 mg/kg of peptide SC mixed in aqueous ZnCl2 solution to a molar ratio of 0.7:1 (peptide:ZnCl2), and blood was collected by venesection at several time points up to 72 h. Plasma was separated by centrifugation at 10,000 g for 8 min at 4 °C. Plasma concentrations were assessed by radioimmunoassay using an in-house assay as previously described using standard curves generated from each SRB103 peptide to ensure that equivalent recovery was obtained.

SMILES strings stand for the structures. Where a SMILES comes first, the peptide text is derived from it. [ ]: non-standard residue; d: D form. Aib = CC(C)(N)C(=O)O

For orientation: Emax means the maximal effect, on the per cent scale that the assay sets.

GLP-1R, sequence (P43220 24-463): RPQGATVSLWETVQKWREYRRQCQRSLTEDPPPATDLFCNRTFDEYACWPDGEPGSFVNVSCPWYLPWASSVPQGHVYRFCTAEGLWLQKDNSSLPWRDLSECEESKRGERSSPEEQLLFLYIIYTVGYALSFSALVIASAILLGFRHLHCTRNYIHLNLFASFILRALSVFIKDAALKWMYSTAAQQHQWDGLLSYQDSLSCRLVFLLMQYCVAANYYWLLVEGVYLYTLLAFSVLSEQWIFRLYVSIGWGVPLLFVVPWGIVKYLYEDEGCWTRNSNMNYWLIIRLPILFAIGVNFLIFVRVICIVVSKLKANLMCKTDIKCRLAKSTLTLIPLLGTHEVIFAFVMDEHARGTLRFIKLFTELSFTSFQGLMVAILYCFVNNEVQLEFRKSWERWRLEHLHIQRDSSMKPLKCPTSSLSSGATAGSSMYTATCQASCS

Regarding `CC[C@H](C)[C@H](NC(=O)[C@H](Cc1ccccc1)NC(=O)[C@H](CCC(=O)O)NC(=O)[C@H](CCC(N)=O)NC(=O)[C@H](C)NC(=O)[C@H](CCCNC(=N)N)NC(=O)[C@H](CCCCN)NC(=O)[C@H](C)NC(=O)[C@H](CC(=O)O)NC(=O)[C@H](CC(C)C)NC(=O)[C@H](Cc1ccc(O)cc1)NC(=O)[C@H](CCCCN)NC(=O)[C@H](CO)NC(=O)[C@H](Cc1ccc(O)cc1)NC(=O)[C@H](CC(=O)O)NC(=O)[C@H](CO)NC(=O)[C@@H](NC(=O)[C@H](Cc1ccccc1)NC(=O)[C@@H](NC(=O)CNC(=O)[C@H](Cc1c[nH]cn1)NC(=O)C(C)(C)NC(=O)[C@@H](N)Cc1c[nH]cn1)[C@@H](C)O)[C@@H](C)O)C(=O)N[C@@H](CCC(=O)O)C(=O)N[C@@H](Cc1c[nH]c2ccccc12)C(=O)N[C@@H](CC(C)C)C(=O)N[C@@H](CC(C)C)C(=O)N[C@@H](C)C(=O)NCC(=O)N[C@@H](Cc1c[nH]cn1)C(=O)N[C@@H](Cc1c[nH]cn1)C(=O)N[C@@H](Cc1c[nH]cn1)C(=O)N[C@@H](Cc1c[nH]cn1)C(=O)N[C@@H](Cc1c[nH]cn1)C(=O)N1CCC[C@H]1C(=O)N[C@@H](CO)C(=O)N[C@@H](Cc1c[nH]c2ccccc12)C(=O)O` [SRB103H] (H-H[Aib]HGTFTSDYSKYLDAKRAQEFIEWLLAGHHHHHPSW-OH), the Emax stood at 103 ± 4% in data set [1] (HEK-293T, normalised to globally fitted maximum response) and 101 ± 5% in data set [2]. In addition, the EC50 in data set [1] (3-parameter fit, read-out: GLP-1R mini-Gs (HEK293T) pEC50 (converted)) was 79.4 nM; in data set [2], 25.1 nM. Besides, the “Plasma concentration 4 h after a single dose” value in data set [3] is “the same”.

Turning to `CC[C@H](C)[C@H](NC(=O)[C@H](Cc1ccccc1)NC(=O)[C@H](CCC(=O)O)NC(=O)[C@H](CCC(N)=O)NC(=O)[C@H](C)NC(=O)[C@H](CCCNC(=N)N)NC(=O)[C@H](CCCCN)NC(=O)[C@H](C)NC(=O)[C@H](CC(=O)O)NC(=O)[C@H](CC(C)C)NC(=O)[C@H](Cc1ccc(O)cc1)NC(=O)[C@H](CCCCN)NC(=O)[C@H](CO)NC(=O)[C@H](Cc1ccc(O)cc1)NC(=O)[C@H](CC(=O)O)NC(=O)[C@H](CO)NC(=O)[C@@H](NC(=O)[C@H](Cc1ccccc1)NC(=O)[C@@H](NC(=O)CNC(=O)[C@H](CCC(N)=O)NC(=O)C(C)(C)NC(=O)[C@@H](N)Cc1c[nH]cn1)[C@@H](C)O)[C@@H](C)O)C(=O)N[C@@H](CCC(=O)O)C(=O)N[C@@H](Cc1c[nH]c2ccccc12)C(=O)N[C@@H](CC(C)C)C(=O)N[C@@H](CC(C)C)C(=O)N[C@@H](C)C(=O)NCC(=O)N[C@@H](Cc1c[nH]cn1)C(=O)N[C@@H](Cc1c[nH]cn1)C(=O)N[C@@H](Cc1c[nH]cn1)C(=O)N[C@@H](Cc1c[nH]cn1)C(=O)N[C@@H](Cc1c[nH]cn1)C(=O)N1CCC[C@H]1C(=O)N[C@@H](CO)C(=O)N[C@@H](Cc1c[nH]c2ccccc12)C(=O)O` [SRB103Q] (H-H[Aib]QGTFTSDYSKYLDAKRAQEFIEWLLAGHHHHHPSW-OH), in data set [2], the EC50 was 100 nM and the Emax amounted to 92 ± 9%.
